Assay results: ChEMBL document CHEMBL3885881, “DrugMatrix”

Organism: Rattus norvegicus
Assay: DrugMatrix - Regimen: Daily Repeat
Type: toxicity, organism-based, Sprague-Dawley
Design: regimen Daily Repeat, gender Male, age 6-8 weeks
Conditions: in vivo, sc, route subcutaneous, […]; for ABSOLUTE BASOPHIL / ABSOLUTE EOSINOPHIL / ABSOLUTE LYMPHOCYTE / ABSOLUTE MONOCYTE / ABSOLUTE SEGMENTED NEUTROPHIL / BASOPHIL / EOSINOPHIL / ERYTHROCYTE COUNT / HEMATOCRIT / HEMOGLOBIN / LEUKOCYTE COUNT / LYMPHOCYTE / MEAN CORPUSCULAR HEMOGLOBIN / MEAN CORPUSCULAR HEMOGLOBIN CONCENTRATION / MEAN CORPUSCULAR VOLUME / MONOCYTE / NEUTROPHIL / NUCLEATED RED BLOOD CELLS / PLATELET COUNT: tissue Blood; for ALANINE AMINOTRANSFERASE / ALBUMIN / ALKALINE PHOSPHATASE / ASPARTATE AMINOTRANSFERASE / BLOOD UREA NITROGEN / CARBON DIOXIDE / CHLORIDE / CHOLESTEROL / CREATINE PHOSPHOKINASE / CREATININE / GLUCOSE / LACTATE DEHYDROGENASE / LIPASE / PHOSPHORUS / POTASSIUM / SODIUM / TOTAL BILIRUBIN / TOTAL PROTEIN / URIC ACID: tissue Plasma
[1] = 0.8 mg/kg, 120 h, dose level Low, time 5 day
[2] = 8 mg/kg, 72 h, dose level High, time 3 day
[3] = 8 mg/kg, 120 h, dose level High, time 5 day

Oc1c(Cl)cc(Cl)c(Cl)c1Cc1c(O)c(Cl)cc(Cl)c1Cl [HEXACHLOROPHENE]
ABSOLUTE BASOPHIL [1]: 0 CELLS/uL | ABSOLUTE EOSINOPHIL [1]: 0 CELLS/uL | ABSOLUTE LYMPHOCYTE [1]: 15077 CELLS/uL | ABSOLUTE MONOCYTE [1]: 281 CELLS/uL | ABSOLUTE SEGMENTED NEUTROPHIL [1]: 1342 CELLS/uL | BASOPHIL [1]: 0% | EOSINOPHIL [1]: 0% | ERYTHROCYTE COUNT [1]: 5.52 x10E6/uL | HEMATOCRIT [1]: 35.07% | HEMOGLOBIN [1]: 13.27 G/DL | LEUKOCYTE COUNT [1]: 16.7 x10E3/uL | LYMPHOCYTE [1]: 90.33% | MEAN CORPUSCULAR HEMOGLOBIN [1]: 24.07 pg | MEAN CORPUSCULAR HEMOGLOBIN CONCENTRATION [1]: 37.9 G/DL | MEAN CORPUSCULAR VOLUME [1]: 63.53 fL | MONOCYTE [1]: 1.67% | NEUTROPHIL [1]: 8% | NUCLEATED RED BLOOD CELLS [1]: 0 /100WBC | PLATELET COUNT [1]: 1358.33 x10E3/uL | ALANINE AMINOTRANSFERASE [1]: 45.33 u/L | ALBUMIN [1]: 4.07 G/DL | ALKALINE PHOSPHATASE [1]: 296.33 u/L | ASPARTATE AMINOTRANSFERASE [1]: 78 u/L | BLOOD UREA NITROGEN [1]: 15.67 mg/dL | CARBON DIOXIDE [1]: 26.67 mmol/L | CHLORIDE [1]: 104.67 MEQ/L | CHOLESTEROL [1]: 74.67 mg/dL | CREATINE PHOSPHOKINASE [1]: 237 u/L | CREATININE [1]: 0.35 mg/dL | GLUCOSE [1]: 154.33 mg/dL | LACTATE DEHYDROGENASE [1]: 156 u/L | LIPASE [1]: 11 u/L | PHOSPHORUS [1]: 11.83 mg/dL | POTASSIUM [1]: 6.6 MEQ/L | SODIUM [1]: 144.67 MEQ/L | TOTAL BILIRUBIN [1]: 0.13 mg/dL | TOTAL PROTEIN [1]: 5.8 G/DL | URIC ACID [1]: 1.47 mg/dL | ABSOLUTE BASOPHIL [2]: 0 CELLS/uL | ABSOLUTE EOSINOPHIL [2]: 49.67 CELLS/uL | ABSOLUTE LYMPHOCYTE [2]: 12140.67 CELLS/uL | ABSOLUTE MONOCYTE [2]: 337 CELLS/uL | ABSOLUTE SEGMENTED NEUTROPHIL [2]: 1839.33 CELLS/uL | BASOPHIL [2]: 0% | EOSINOPHIL [2]: 0.33% | ERYTHROCYTE COUNT [2]: 5.89 x10E6/uL | HEMATOCRIT [2]: 36.63% | HEMOGLOBIN [2]: 13.43 G/DL | LEUKOCYTE COUNT [2]: 14.37 x10E3/uL | LYMPHOCYTE [2]: 84.67% | MEAN CORPUSCULAR HEMOGLOBIN [2]: 22.8 pg | MEAN CORPUSCULAR HEMOGLOBIN CONCENTRATION [2]: 36.7 G/DL | MEAN CORPUSCULAR VOLUME [2]: 62.27 fL | MONOCYTE [2]: 2.33% | NEUTROPHIL [2]: 12.67% | NUCLEATED RED BLOOD CELLS [2]: 0 /100WBC | PLATELET COUNT [2]: 1253 x10E3/uL | ALANINE AMINOTRANSFERASE [2]: 52 u/L | ALBUMIN [2]: 4.1 G/DL | ALKALINE PHOSPHATASE [2]: 314.33 u/L | ASPARTATE AMINOTRANSFERASE [2]: 87.67 u/L | BLOOD UREA NITROGEN [2]: 16.67 mg/dL | CARBON DIOXIDE [2]: 22.33 mmol/L | CHLORIDE [2]: 105.33 MEQ/L | CHOLESTEROL [2]: 87.33 mg/dL | CREATINE PHOSPHOKINASE [2]: 258.67 u/L | CREATININE [2]: 0.21 mg/dL | GLUCOSE [2]: 187.33 mg/dL | LACTATE DEHYDROGENASE [2]: 132 u/L | LIPASE [2]: 9.67 u/L | PHOSPHORUS [2]: 11.9 mg/dL | POTASSIUM [2]: 5.67 MEQ/L | SODIUM [2]: 146.53 MEQ/L | TOTAL BILIRUBIN [2]: 0.17 mg/dL | TOTAL PROTEIN [2]: 5.93 G/DL | URIC ACID [2]: 2.47 mg/dL | ABSOLUTE BASOPHIL [3]: 0 CELLS/uL | ABSOLUTE EOSINOPHIL [3]: 154 CELLS/uL | ABSOLUTE LYMPHOCYTE [3]: 13307.33 CELLS/uL | ABSOLUTE MONOCYTE [3]: 238 CELLS/uL | ABSOLUTE SEGMENTED NEUTROPHIL [3]: 1100.67 CELLS/uL | BASOPHIL [3]: 0% | EOSINOPHIL [3]: 1% | ERYTHROCYTE COUNT [3]: 5.91 x10E6/uL | HEMATOCRIT [3]: 35.87% | HEMOGLOBIN [3]: 13.17 G/DL | LEUKOCYTE COUNT [3]: 14.8 x10E3/uL | LYMPHOCYTE [3]: 90% | MEAN CORPUSCULAR HEMOGLOBIN [3]: 22.3 pg | MEAN CORPUSCULAR HEMOGLOBIN CONCENTRATION [3]: 36.7 G/DL | MEAN CORPUSCULAR VOLUME [3]: 60.8 fL | MONOCYTE [3]: 1.67% | NEUTROPHIL [3]: 7.33% | NUCLEATED RED BLOOD CELLS [3]: 0 /100WBC | PLATELET COUNT [3]: 1301.67 x10E3/uL | ALANINE AMINOTRANSFERASE [3]: 46 u/L | ALBUMIN [3]: 4 G/DL | ALKALINE PHOSPHATASE [3]: 378.33 u/L | ASPARTATE AMINOTRANSFERASE [3]: 85 u/L | BLOOD UREA NITROGEN [3]: 16.33 mg/dL | CARBON DIOXIDE [3]: 27.33 mmol/L | CHLORIDE [3]: 104.67 MEQ/L | CHOLESTEROL [3]: 70.33 mg/dL | CREATINE PHOSPHOKINASE [3]: 346.67 u/L | CREATININE [3]: 0.2 mg/dL | GLUCOSE [3]: 174 mg/dL | LACTATE DEHYDROGENASE [3]: 129.67 u/L | LIPASE [3]: 9.33 u/L | PHOSPHORUS [3]: 11.03 mg/dL | POTASSIUM [3]: 5.65 MEQ/L | SODIUM [3]: 146 MEQ/L | TOTAL BILIRUBIN [3]: 0.2 mg/dL | TOTAL PROTEIN [3]: 5.83 G/DL | URIC ACID [3]: 1.63 mg/dL
